The results in this text go back to ChEMBL document CHEMBL1777711, “Synthesis and bioactivity of new Finasteride conjugate” (Bioorg Med Chem Lett, 2011).

Active and inactive are the calls of the source. The rule behind the calls is not given here.

The test system of data set [1] is Rattus norvegicus. Put plainly: Inhibition of testosterone propionate-induced castrated Wistar rat benign prostatic hyperplasia model assessed as decrease in prostate weight at 10 mg/kg, iv for 14 days. The data set is classed as functional, organism-based. Also on record: dose 10 mg/kg. The conditions noted are these: Wister, Prostate gland.
Data set [2] has as its system Rattus norvegicus. As to the kind of experiment: Inhibition of testosterone propionate-induced castrated Wistar rat benign prostatic hyperplasia model assessed as decrease in seminal vesicles weight at 10 mg/kg, iv for 14 days. Format: functional, organism-based. Details: dose 10 mg/kg. The conditions noted are these: Wister.
For data set [3], the target named is T1, 3-oxo-5-alpha-steroid 4-dehydrogenase 2 (Rattus norvegicus, UniProt P31214).
T1 sequence (P31214 whole entry): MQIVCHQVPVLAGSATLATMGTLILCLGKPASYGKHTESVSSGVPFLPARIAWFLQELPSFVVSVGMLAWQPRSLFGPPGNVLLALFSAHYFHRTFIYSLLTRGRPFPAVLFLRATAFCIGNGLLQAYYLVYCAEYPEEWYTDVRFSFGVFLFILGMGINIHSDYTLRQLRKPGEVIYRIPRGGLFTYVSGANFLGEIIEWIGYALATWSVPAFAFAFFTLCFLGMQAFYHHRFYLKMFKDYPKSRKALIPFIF
As to the kind of experiment: Inhibition of rat 5-alpha-reductase type 2 by Lineweaver-Burk plot.

Data set [4] concerns Rattus norvegicus. Put plainly: Toxicity in testosterone propionate-induced castrated Wistar rat benign prostatic hyperplasia model assessed as body weight at 2 to 50 mg/kg, iv for 14 days. Also on record: dose 2-50 mg/kg, route intravenous. The conditions noted are these: in vivo, 336 h. The data set is classed as organism-based, Wister.
The subject of data set [5] is Rattus norvegicus. As to the kind of experiment: Inhibition of testosterone propionate-induced castrated Wistar rat benign prostatic hyperplasia model assessed as decrease in prostate weight at 2 mg/kg, iv for 14 days. Format: functional, organism-based. Also on record: dose 2 mg/kg. The conditions noted are these: Wister, Prostate gland.
Data set [6] deals with Rattus norvegicus. As to the kind of experiment: Inhibition of testosterone propionate-induced castrated Wistar rat benign prostatic hyperplasia model assessed as decrease in seminal vesicles weight at 2 mg/kg, iv for 14 days. Format: functional, organism-based. Details: dose 2 mg/kg. As to conditions: Wister.
The subject of data set [7] is Rattus norvegicus. As to the kind of experiment: Inhibition of testosterone propionate-induced castrated Wistar rat benign prostatic hyperplasia model assessed as decrease in prostate weight at 50 mg/kg, iv for 14 days. The data set is classed as functional, organism-based. Also on record: dose 50 mg/kg. As to conditions: Wister, Prostate gland.
The subject of data set [8] is Rattus norvegicus. Put plainly: Inhibition of testosterone propionate-induced castrated Wistar rat benign prostatic hyperplasia model assessed as decrease in seminal vesicles weight at 50 mg/kg, iv for 14 days. Details: dose 50 mg/kg. As to conditions: Wister. Format: functional, organism-based.
Data set [9] has as its system Rattus norvegicus. Put plainly: Inhibition of testosterone propionate-induced castrated Wistar rat benign prostatic hyperplasia model assessed as prostate gland arrangement order at 10 mg/kg, iv by histochemistry. The data set is classed as functional, organism-based. Details: dose 10 mg/kg. The conditions noted are these: Wister.
Data set [10] relates to Rattus norvegicus. As to the kind of experiment: Inhibition of testosterone propionate-induced castrated Wistar rat benign prostatic hyperplasia model assessed as decrease in pseudostratified epithelia at 10 mg/kg, iv by histochemistry. The conditions noted are these: Wister. The data set is classed as functional, organism-based. Details: dose 10 mg/kg.
Data set [11] relates to Rattus norvegicus. Put plainly: Inhibition of testosterone propionate-induced castrated Wistar rat benign prostatic hyperplasia model assessed as decrease in epithelial protrusions at 10 mg/kg, iv by histochemistry. As to conditions: Wister. Format: functional, organism-based. Details: dose 10 mg/kg.
Data set [12] has as its system Rattus norvegicus. Put plainly: Inhibition of testosterone propionate-induced castrated Wistar rat benign prostatic hyperplasia model assessed as decrease in hyperplasia of interstitial tissues at 10 mg/kg, iv by histochemistry. The data set is classed as functional, organism-based. Also on record: dose 10 mg/kg. As to conditions: Wister.
Data set [13] concerns Rattus norvegicus. Put plainly: Toxicity in testosterone propionate-induced castrated Wistar rat benign prostatic hyperplasia model assessed as vital signs at 10 mg/kg, iv […]. Format: organism-based, Wister. Also on record: dose 10 mg/kg, route intravenous. As to conditions: in vivo.

Broadly, the IC50 is the point on the concentration scale where inhibition reaches its midpoint. Low readings indicate inhibition by little substance, high ones a need for much substance. Turning to `CC(C)(C)N(C(=O)C1CSCN1C(=O)C1CCC(=O)N1)C(=O)[C@H]1CC[C@H]2[C@@H]3CC[C@H]4NC(=O)C=C[C@]4(C)[C@H]3CC[C@]12C` (stereo partly specified), the inhibition entry with Rattus norvegicus [1], in the data set on Rattus norvegicus [2], with Rattus norvegicus [5], with Rattus norvegicus [6], in the data set on Rattus norvegicus [7] and in the data set with Rattus norvegicus [8] was “Active” each time. Also, the inhibition entry in the data set on Rattus norvegicus [9], in the data set with Rattus norvegicus [10], in the data set with Rattus norvegicus [11] and with Rattus norvegicus [12] was “Active” throughout. In addition, half-maximal inhibition in [3] (IC50) required 88 nM. Besides, the Activity result with Rattus norvegicus [4] and in the data set on Rattus norvegicus [13] was “Non-toxic” throughout.
`CC(C)(C)NC(=O)[C@H]1CC[C@H]2[C@@H]3CC[C@H]4NC(=O)C=C[C@]4(C)[C@H]3CC[C@]12C` [FINASTERIDE]: the inhibition result with Rattus norvegicus [1], with Rattus norvegicus [2], in the data set with Rattus norvegicus [9], with Rattus norvegicus [10], with Rattus norvegicus [11] and in the data set on Rattus norvegicus [12] was “Active” throughout. The same compound yielded an IC50 in data set [3] of 147 nM. The Activity result in the data set on Rattus norvegicus [4] is given as “Non-toxic”.
